The values that follow come from US12138625B2, “Screening kit and method” (CELLPLY S.R.L., priority 2016, dated 2024).

One test has as its system Jurkat cells. Put plainly: calcium signal (Fluo-4) of Jurkat cells after stimulation in open microwells. The class given is cell-based, human. Conditions: Fluo-4 fluorescence, OKT3 10 μg/mL, average of a series of 3 experiments. As to the method: Cells from the Jurkat cell line (human Leukemic T cells) were obtained from ATCC and cultured in RPMI 1640 medium supplemented with 10% inactivated FBS medium, 10 mM Hepes, 2 mM Ultraglutamine and 1 mM sodium pyruvate, 1% Penicillin/Streptomycin in 25 cm^2 flasks at 37° C. and 5% CO2.
The OKT3 hybridomas were cultured in bioreactors (CellLine, Integra Biosciences) in complete RPMI 1640 medium containing 3% FBS and the supernatant was collected 2 times a week. The purification of monoclonal antibodies was performed using a double saturated ammonium sulfate precipitation at 30% and 50%, followed by dialysis in PBS. The purity of OKT3 was assessed by SDS-PAGE gel and the amount of antibody was determined through NanoDrop (Thermo Scientific). The antibody was then frozen at −80° C. before use.
For the assay in open microwells according to the present invention, Jurkat cells were labeled with Fluo-4 20 μM in HBSS, centrifuged and resuspended in serum-free medium (RPMI 1640 with 25 mM Hepes or HBSS) at a concentration of 1.6×10^6 cells/mL in 1.5 mL Eppendorf tubes used as input reservoirs for the open reversed microwell system. […] The images were acquired by a camera connected to the microscope at a distance of 1 minute and processed by software developed in LabView, quantifying the dynamic performance of the same signal on each sample cell.

The subject of a further test is SU-DHL-4 cancer cells. As to the kind of experiment: open well assay of Rituximab on SU-DHL-4 lymphoma cells (Calcein-AM / PI, time-lapse). The class given is cell-based. As to conditions: Rituximab 10 μg/mL, human serum 1%, PI 5 μM; versus CTRL; FIG. 11A. As to the method:
Cells: SU-DHL-4 lymphoma cells and Raji cells were used (ATCC CCL-86). 3·10^5 cells/mL were cultured in RPMI medium supplemented with 10% FBS, 1% […]/streptomycin at 37° C., 95% RH, 5% CO2. The cells were amplified, dividing them when in confluence. PBMC were isolated from blood by centrifugation in gradient. Whole blood from healthy donors was collected into tubes treated with anticoagulants according to the directive “ethical principles and guidelines for the protection of humans in research”. Isolated PBMC were washed twice with 10 mL cold HBSS after lysis of red blood cells. The concentration of cells and their viability was determined with Trypan Blue on haemocytometer. The concentration was adjusted to 1 million cells/mL.
Different batches of SU-DHL-4 or Raji cells were harvested at the peak of their growth, washed with PBS and counted in a hemocytometer with Trypan Blue. The cell concentration was adjusted to 1 million cells/mL and they were labeled with Calcein AM (CAM) 5 nM for flow cytometry and 250 nM for the assay according to the present invention. […] Cell viability was finally assessed by PI and flow cytometry. […]
The images were acquired in brightfield (BF) to evaluate the morphological characteristics and then in fluorescence to evaluate the signal in DAPI bands (ex: 360/40 nm, em: 460/50 nm), FITC (ex: 480/30 nm, em: 535/40 nm), TRITC (ex: 540/25 nm, em: 605/55 nm). […]

For the substance “OKT3: monoclonal antibody purified from OKT3 hybridoma supernatant”, the “increase of the signal peak, compared to the baseline value” with Jurkat cells is 178%+/−90%. With RTX: monoclonal antibody Rituximab, the “dead cells (PI, TRITC channel) in time-lapse images” value with SU-DHL-4 cancer cells is “present only at T2 and T3 in the RTX group”.
